In the supplement of paper PMC10307832:

Tests used:
Experiment in all cases: relative viability (nuclei count vs DMSO), 5 days (fraction); higher = more cells survive
[1] = compound: CC1=CC=C(C=C1)C(=O)CN2C3=C(CCCC3)SC2=N [Pifithrin_alpha] + Cc1cc(Nc2cc(N3CCN(C)CC3)nc(Sc3ccc(NC(=O)C4CC4)cc3)n2)n[nH]1 [Tozasertib] (partner 0.1 µM)
Procedure, shortened: (§1)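 Medians of duplicate plates are given as relative viability. That measure is the nuclei count in treated wells divided by the count in vehicle wells. Counts were taken on 4× images of lung cancer cell lines in 1536-well plates, 5 days after pin-tool dosing the day after seeding with one drug alone or a fixed anchor-drug dose plus five library-drug doses (not always all listed) in √10 steps.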

Bemcentinib + Foretinib = compound: Nc1nc(Nc2ccc3c(c2)CC[C@@H](N2CCCC2)CC3)nn1-c1cc2c(nn1)-c1ccccc1CCC2 [Bemcentinib] + COc1cc2c(Oc3ccc(NC(=O)C4(C(=O)Nc5ccc(F)cc5)CC4)cc3F)ccnc2cc1OCCCN1CCOCC1 [Foretinib] (partner 0.25 µM)
Procedure, shortened: as §1

[2] = compound: CC1=CC=C(C=C1)C(=O)CN2C3=C(CCCC3)SC2=N [Pifithrin_alpha] + CC(=O)Nc1cccc(-n2c(=O)n(C3CC3)c(=O)c3c(Nc4ccc(I)cc4F)n(C)c(=O)c(C)c32)c1 [Trametinib] (partner 0.02 µM)
Procedure, shortened: as §1

[3] = compound: CC1=CC=C(C=C1)C(=O)CN2C3=C(CCCC3)SC2=N [Pifithrin_alpha] + COc1cc2c(Oc3ccc(NC(=O)C4(C(=O)Nc5ccc(F)cc5)CC4)cc3F)ccnc2cc1OCCCN1CCOCC1 [Foretinib] (partner 0.25 µM)
Procedure, shortened: as §1

| Cell Line | relative viability ([1]; first compound 1 µM) | relative viability ([1]; first compound 3.162 µM) | relative viability ([1]; first compound 10 µM) | relative viability ([1]; first compound 31.62 µM) | relative viability ([1]; first compound 100 µM) | relative viability (Bemcentinib + Foretinib; first compound 0.04 µM) | relative viability (Bemcentinib + Foretinib; first compound 0.1265 µM) | relative viability (Bemcentinib + Foretinib; first compound 0.4 µM) | relative viability (Bemcentinib + Foretinib; first compound 1.265 µM) | relative viability (Bemcentinib + Foretinib; first compound 4 µM) | relative viability ([2]; first compound 1 µM) | relative viability ([2]; first compound 3.162 µM) | relative viability ([2]; first compound 10 µM) | relative viability ([2]; first compound 31.62 µM) | relative viability ([2]; first compound 100 µM) | relative viability ([3]; first compound 1 µM) | relative viability ([3]; first compound 3.162 µM) | relative viability ([3]; first compound 10 µM) | relative viability ([3]; first compound 31.62 µM) | relative viability ([3]; first compound 100 µM) |
| --- | --- | --- | --- | --- | --- | --- | --- | --- | --- | --- | --- | --- | --- | --- | --- | --- | --- | --- | --- | --- |
| NCI-H358 | 0.112 | 0.0941 | 0.101 | 0.104 | 0.0923 | 0.723 | 0.827 | 0.73 | 0.749 | 0.853 | 0.138 | 0.124 | 0.129 | 0.12 | 0.121 | 0.773 | 0.777 | 0.645 | 0.467 | 0.541 |
| LU99A | 0.304 | 0.259 | 0.31 | 0.286 | 0.25 | 0.751 | 0.763 | 0.778 | 0.816 | 0.837 | 0.458 | 0.601 | 0.573 |  | 0.575 | 0.772 | 0.866 | 0.861 | 0.398 | 0.776 |
| NCI-H1734 | 0.28 | 0.259 | 0.238 | 0.262 | 0.245 | 0.854 | 0.916 | 0.818 | 0.838 | 0.952 | 0.716 | 0.769 | 0.648 | 0.623 | 0.666 | 0.868 | 0.825 | 0.814 | 0.763 | 0.793 |
| HARA |  | 0.107 | 0.117 |  | 0.0634 | 0.856 | 1.11 | 1.01 | 1.04 | 0.958 | 0.557 | 0.695 | 0.836 | 0.493 | 0.45 |  | 1.08 | 0.978 |  | 0.656 |
| NCI-H2228 | 0.247 | 0.147 | 0.209 | 0.154 | 0.135 | 0.516 | 0.931 | 0.994 | 0.908 | 0.776 | 0.611 | 0.482 | 0.499 | 0.384 | 0.436 | 1.04 | 0.867 | 0.758 | 0.711 | 0.793 |
| HCC-827 | 0.422 | 0.522 | 0.381 | 0.337 | 0.353 | 1.13 | 1.05 | 1.08 | 1.09 | 1.08 | 0.558 | 0.562 | 0.576 | 0.498 | 0.573 | 1.01 | 0.996 | 0.84 | 0.597 | 0.857 |
| EPLC-272H | 0.255 | 0.13 | 0.169 | 0.202 | 0.292 | 0.639 | 0.899 | 0.712 | 0.839 | 0.988 |  | 0.282 | 0.281 | 0.284 | 0.268 | 0.601 | 0.66 | 0.632 | 0.424 | 0.695 |
